pIC50: −log10 of the molar value. Strand notation (5' to 3'): a small letter for the sugar, then the base; units joined by * are phosphorothioate-linked, units joined directly phosphodiester-linked; [ ] holds rarer units or linkages, { } end groups; capitals alone tell only the bases. k = constrained ethyl (cEt); [5mC] = 5-methylcytosine; d = 2'-deoxy (DNA)
Legend:
human SMAD7 mRNA [1] = test: Antisense inhibition of human SMAD7 mRNA expression in Hep3B cells by 3-10-3 cEt gapmers, 10,000 nM, electroporation (Example 2); assay type: cell-based; settings: approximately 24 hours; for % inhibition of SMAD7 mRNA expression: electroporation, 10,000 nM antisense oligonucleotide, RTS5062, relative to untreated control cells
In short: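 Hep3B, 20,000 cells/well; electroporation, 10,000 nM ASO; ~24 h. Readout: SMAD7 mRNA by qRT-PCR (RTS5062), RIBOGREEN-normalised; % inhibition vs untreated.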

human SMAD7 mRNA [2] = test: Dose-dependent inhibition of human SMAD7 mRNA expression in Hep3B cells (Example 3, Study 1 and 2); assay type: cell-based; settings: electroporation; for % inhibition of SMAD7 mRNA expression: approximately 16 hours; for pIC50: Study 2 (740-20000 nM)
In short: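 Hep3B cells, 20,000 per well, electroporated with antisense oligonucleotide at 0.31, 1.25, 5.00 or 20.00 μM (first series) or 0.74, 2.22, 6.67 or 20.00 μM (second series). After ~16 h, SMAD7 mRNA measured by RT-qPCR (RTS5062), normalised to RIBOGREEN total RNA. Percent inhibition vs untreated cells; IC50 derived.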

[3] = SMAD7 mRNA, Hep3B cells, 10,000 nM antisense oligonucleotide, electroporation, primer probe set RTS5062, relative to untreated control cells
[4] = 740 nM, Study 2, relative to untreated control cells
[5] = Hep3B cells, electroporation with 10,000 nM antisense oligonucleotide, RTS5062, percent inhibition of SMAD7 mRNA relative to untreated control cells
[6] = Hep3B cells, electroporation with 10,000 nM antisense oligonucleotide, SMAD7 mRNA by RT-PCR (RTS5062), relative to untreated control cells

Substance	% Inhibition (human SMAD7 mRNA [1]; [3]) [%]	% inhibition of SMAD7 mRNA expression (human SMAD7 mRNA [2]; [4]) [%]	% inhibition of SMAD7 mRNA expression (human SMAD7 mRNA [2]; 2220 nM, Study 2) [%]	% inhibition of SMAD7 mRNA expression (human SMAD7 mRNA [2]; 6670.0 nM, Study 2) [%]	% inhibition of SMAD7 mRNA expression (human SMAD7 mRNA [2]; 20000.0 nM, Study 2) [%]	pIC50 (human SMAD7 mRNA [2])	% Inhibition (human SMAD7 mRNA [1]; [5]) [%]	% Inhibition (human SMAD7 mRNA [1]; [6]) [%]	% inhibition of SMAD7 mRNA expression (human SMAD7 mRNA [1]; Hep3B cells) [%]
829734 (antisense kT*k[5mC]*k[5mC]*dG*d[5mC]*dA*d[5mC]*dA*d[5mC]*d[5mC]*dA*dT*dG*kA*kA*kG) [compound 829734]	71	20	40	69	68	5.40			
799624 (kT*kG*kA*dA*dA*dG*dT*dA*d[5mC]*dA*dA*dT*d[5mC]*kT*k[5mC]*k[5mC]; antisense) [compound 799624]		2	50	77	89	5.22	58		
799467 (antisense kG*k[5mC]*kA*dG*dA*d[5mC]*dA*dG*dA*dA*dG*d[5mC]*dT*k[5mC]*kT*kA) [compound 799467]		4	27	65	57	< 4.70		69	
799534 (kG*kA*kG*dA*dA*dT*dG*dA*dA*dG*dT*d[5mC]*d[5mC]*kA*kG*kA; antisense) [compound 799534]		16	60	51	86	6.00			68
799781 (kG*kT*k[5mC]*dA*dA*dT*dA*d[5mC]*dA*dT*dA*dT*dT*kT*kG*k[5mC]; antisense) [compound 799781]		23	75	72	92	< 4.70	66		
799722 (antisense kG*k[5mC]*kA*dG*dA*dG*dT*dG*dA*dG*dA*dA*d[5mC]*kA*kA*kG) [compound 799722]		17	38	53	82	5.30	67		
772858 (kA*kG*kT*dG*dT*dT*d[5mC]*dA*dA*d[5mC]*dA*dA*dT*kG*k[5mC]*kT; antisense) [compound 772858]	62	7	26	29	51	< 4.70			
799734 (antisense kT*k[5mC]*k[5mC]*d[5mC]*dA*dG*dG*dT*dG*dA*dA*d[5mC]*d[5mC]*k[5mC]*kA*k[5mC]) [compound 799734]		8	44	64	67	5.10			45
830180 (antisense k[5mC]*kG*kT*dG*dT*dA*d[5mC]*d[5mC]*d[5mC]*dA*dG*d[5mC]*dT*kG*k[5mC]*k[5mC]) [compound 830180]		21	39	43	64	5.10		62	
799564 (k[5mC]*kA*kG*dA*dT*dA*dA*d[5mC]*dA*dG*dA*dG*dT*kA*kT*kA; antisense) [compound 799564]		13	41	60	73	5.52	70		
830135 (antisense kA*kA*kG*dT*dA*d[5mC]*dA*dA*dT*d[5mC]*dT*d[5mC]*d[5mC]*kT*kG*kG) [compound 830135]		16	44	56	71	5.30		64	
772842 (kG*kT*kT*dA*dA*dT*dA*dA*dT*dA*dT*d[5mC]*dT*kT*k[5mC]*k[5mC]; antisense) [compound 772842]		3	23	65	72	5.22	79		
